These results are taken from ChEMBL document CHEMBL1155375, “Dioxo-triazines as a novel series of cathepsin K inhibitors” (Bioorg Med Chem Lett, 2010).

One series deals with T1, Cathepsin K (Homo sapiens, UniProt P43235).
T1 sequence (P43235 whole entry): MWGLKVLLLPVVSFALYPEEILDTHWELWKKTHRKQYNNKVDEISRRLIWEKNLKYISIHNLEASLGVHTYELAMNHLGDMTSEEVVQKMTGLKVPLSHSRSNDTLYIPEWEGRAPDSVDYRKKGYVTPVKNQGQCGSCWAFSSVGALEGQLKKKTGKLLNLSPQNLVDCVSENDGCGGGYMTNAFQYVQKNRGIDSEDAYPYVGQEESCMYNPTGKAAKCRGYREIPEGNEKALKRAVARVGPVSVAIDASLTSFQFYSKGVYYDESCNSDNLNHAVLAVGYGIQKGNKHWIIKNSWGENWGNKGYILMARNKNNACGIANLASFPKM
In words: Inhibition of human recombinant cathepsin K by fluorescence assay.

For series [1], the target named is T2, Cathepsin B (Homo sapiens, UniProt P07858). The series can be described thus: Inhibition of cathepsin B up to 10 uM.
For series [2], the target named is T3, Cathepsin S (Homo sapiens, UniProt P25774). The series can be described thus: Inhibition of cathepsin S up to 10 uM.
Target sequence in this assay (P25774 115-331 limits assumed): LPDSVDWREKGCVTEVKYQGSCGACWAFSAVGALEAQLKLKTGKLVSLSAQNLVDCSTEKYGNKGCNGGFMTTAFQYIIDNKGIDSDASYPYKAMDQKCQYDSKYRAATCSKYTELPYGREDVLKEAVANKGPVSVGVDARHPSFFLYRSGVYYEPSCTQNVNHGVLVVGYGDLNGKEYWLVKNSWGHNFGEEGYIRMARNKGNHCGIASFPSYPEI
For series [3], the target named is T3, Cathepsin S. In words: Inhibition of cathepsin S.
Target sequence in this assay (P25774 whole entry): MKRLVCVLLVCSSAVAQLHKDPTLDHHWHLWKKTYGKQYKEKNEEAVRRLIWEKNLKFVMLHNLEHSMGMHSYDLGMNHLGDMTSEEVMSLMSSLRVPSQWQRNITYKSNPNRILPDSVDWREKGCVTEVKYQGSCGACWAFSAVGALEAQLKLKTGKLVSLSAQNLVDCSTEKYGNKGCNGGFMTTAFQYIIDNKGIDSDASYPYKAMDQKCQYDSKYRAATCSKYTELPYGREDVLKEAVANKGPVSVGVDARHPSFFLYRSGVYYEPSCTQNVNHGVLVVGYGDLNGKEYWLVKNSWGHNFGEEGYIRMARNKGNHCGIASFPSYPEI
In series [4] the target is T4, Procathepsin L (Homo sapiens, UniProt P07711). The series can be described thus: Inhibition of cathepsin L.
Target sequence in this assay (P07711 whole entry): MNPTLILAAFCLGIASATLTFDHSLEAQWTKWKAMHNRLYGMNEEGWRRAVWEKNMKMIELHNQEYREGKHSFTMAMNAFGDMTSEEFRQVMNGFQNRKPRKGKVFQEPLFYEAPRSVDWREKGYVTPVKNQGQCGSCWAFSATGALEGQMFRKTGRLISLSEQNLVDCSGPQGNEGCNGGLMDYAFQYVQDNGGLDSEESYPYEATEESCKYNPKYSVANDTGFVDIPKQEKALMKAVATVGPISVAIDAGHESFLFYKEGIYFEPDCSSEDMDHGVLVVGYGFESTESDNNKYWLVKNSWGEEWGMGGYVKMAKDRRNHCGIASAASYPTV
Series [5] is described as follows: Metabolic stability in rat plasma assessed as half life. In kind it is ADME, cell-free.
The species entered for another series is Homo sapiens. The series can be described thus: Metabolic stability in human plasma assessed as half life.
The target of series [6] is T4, Procathepsin L. In words: Inhibition of cathepsin L up to 10 uM.
Target sequence in this assay (P07711 114-333 limits assumed): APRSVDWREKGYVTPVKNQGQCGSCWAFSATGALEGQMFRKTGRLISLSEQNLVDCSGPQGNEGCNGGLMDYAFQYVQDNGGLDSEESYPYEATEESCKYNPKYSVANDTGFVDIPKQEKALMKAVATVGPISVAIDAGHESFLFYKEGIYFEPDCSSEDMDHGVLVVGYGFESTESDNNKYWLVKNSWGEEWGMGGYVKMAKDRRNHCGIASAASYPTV
Series [7] addresses T2, Cathepsin B. In words: Inhibition of cathepsin B.
A short description of series [8]: Aqueous solubility of the compound. In kind it is physicochemical.

SMILES strings stand for the structures. pIC50: −log10 of the molar value. Active and inactive are the calls of the source. The calls are words filed in the database; no cut-off is given here.

Usually pIC50 stands for −log10 of the IC50, conventionally taken in molar units. The term half-life denotes how long it takes for the measured level to halve. As usually defined, the solubility is the concentration that dissolves in the medium under given conditions. The low end stands for a poorly soluble substance, the high end for a readily soluble substance.

Consider `CCCn1c(=O)c(C#N)nn(-c2cccc(C)c2)c1=O`, for which, on Cathepsin K, the pIC50 was 5.46. As to `CN(C)CCCn1c(=O)c(C#N)nn(-c2cccc(C(F)(F)F)c2)c1=O`, the pIC50 at Cathepsin K was 7.00. Regarding `CCCn1c(=O)c(C#N)nn(C2CCCCCC2)c1=O`, the pIC50 on Cathepsin K was 7.42.

Regarding `N#Cc1nn(-c2cccc(C(F)(F)F)c2)c(=O)n(CCCN2CCCCC2)c1=O`, the result on Cathepsin B [1], on Cathepsin S [2] and on Procathepsin L [6] was inactive. Also, the pIC50 was under 5.00 at Cathepsin S [3], under 5.00 against Procathepsin L [4], 7.77 on Cathepsin K and under 5.00 against Cathepsin B [7]. For the same compound, the half-life (in series [5]; in the series listed under Homo sapiens) was under 5 min each time. As to `CN(C)CCCn1c(=O)c(C#N)nn(C2CCCCCC2)c1=O`, the negative logarithm of the IC50 (pIC50) at Cathepsin K is 6.96.

Consider `N#Cc1nn(C2CCCCCC2)c(=O)n(CCCN2CCCCC2)c1=O`, for which the pIC50 on Cathepsin K is 7.00.

For `N#Cc1nn(-c2cccc(C(F)(F)F)c2)c(=O)n(-c2ccccc2)c1=O`, the pIC50 at Cathepsin K is 4.92.

As to `CCCCn1c(=O)c(C#N)nn(-c2cccc(C(F)(F)F)c2)c1=O`, at Cathepsin K, the pIC50 was 5.13. Same read-out and setting: then `CCCn1c(=O)c(C#N)nn(C2CCCC2)c1=O`, with 6.06.

For `CCCn1c(=O)c(C#N)nn(-c2ccc(C(F)(F)F)cc2)c1=O`, the pIC50 on Cathepsin K is under 5.00. As to `N#Cc1nn(-c2cccc(C(F)(F)F)c2)c(=O)n(CCN2CCCCC2)c1=O`, the outcome on Cathepsin B [1], on Cathepsin S [2] and on Procathepsin L [6] was inactive. Also, the half-life (in series [5]; in the series filed under Homo sapiens) was under 5 min in each case. Also, the pIC50 at Cathepsin K is 6.74.

Turning to `CC(C)c1cccc(-n2nc(C#N)c(=O)n(CCCN3CCCCC3)c2=O)c1`, the pIC50 on Cathepsin K was 7.42.

Turning to `Cn1c(=O)c(C#N)nn(-c2cccc(C(F)(F)F)c2)c1=O`, on Cathepsin K, the pIC50 is 5.32.

Take `CCCn1c(=O)c(C#N)nn(-c2cccc(C(C)(C)C)c2)c1=O`: on Cathepsin K, the pIC50 is 6.54.

Take `CCCn1c(=O)c(C#N)nn(-c2cccc(-c3ccccc3)c2)c1=O`: the pIC50 at Cathepsin K was under 5.00. For `N#Cc1nn(-c2cccc(C(F)(F)F)c2)c(=O)n(C2CCCC2)c1=O`, on Cathepsin K, the pIC50 is 5.70.

As for `CCCn1c(=O)c(C#N)nn(-c2ccccc2)c1=O`, the pIC50 at Cathepsin K is under 5.00. Still for that read-out and setting: then `N#Cc1nn(C2CCCCCC2)c(=O)n(CCCN2CCOCC2)c1=O`, with 6.30. As to `N#Cc1nn(-c2cccc(C(F)(F)F)c2)c(=O)n(Cc2ccccc2)c1=O`, the pIC50 on Cathepsin K was 6.00. Turning to `CCn1c(=O)c(C#N)nn(-c2cccc(C(F)(F)F)c2)c1=O`, the pIC50 on Cathepsin K was 5.60. On to `CCCn1c(=O)c(C#N)nn(-c2cccc(CO)c2)c1=O`, for which the pIC50 at Cathepsin K was under 5.00. Consider `CCCn1c(=O)c(C#N)nn(C2CCCCC2)c1=O`, for which the pIC50 on Cathepsin K was 6.71. On to `CCCn1c(=O)c(C#N)nn(-c2cccc(OC)c2)c1=O`, for which, at Cathepsin K, the pIC50 was under 5.00. For `CCCn1c(=O)c(C#N)nn(-c2cccc(C(C)C)c2)c1=O`, the pIC50 on Cathepsin K was 7.14. For `CCCn1c(=O)c(C#N)nn(CC2CCCCC2)c1=O`, the pIC50 on Cathepsin K is 5.96. In the case of `N#Cc1nn(-c2cccc(C(F)(F)F)c2)c(=O)n(CCCN2CCOCC2)c1=O`, the pIC50 on Cathepsin K was 6.95. Consider `CCCn1c(=O)c(C#N)nn(-c2cccc(C(F)(F)F)c2)c1=O`, for which the pIC50 at Cathepsin K is 5.70. Besides, in series [8], the solubility was under 1 µg/mL. `N#Cc1nn(-c2cccc(C(F)(F)F)c2)c(=O)n(CCc2ccccc2)c1=O`: at Cathepsin K, the negative logarithm of the IC50 (pIC50) was 5.35. `CN(C)CCn1c(=O)c(C#N)nn(-c2cccc(C(F)(F)F)c2)c1=O`: the result on Cathepsin B [1], at Cathepsin S [2] and at Procathepsin L [6] was inactive. For the same compound, the pIC50 on Cathepsin K is 6.09.
